Earlier results on one molecule are cited in PMC7998273, “Zein Nanoparticles Improve the Oral Bioavailability of Curcumin in Wistar Rats” (Pharmaceutics, 2021).

On the set-up of the data set: method as in PMID 17400527. The note with it: orally administered.

Turning to `COc1cc(/C=C/C(=O)CC(=O)/C=C/c2ccc(O)c(OC)c2)ccc1O` [CC, curcumin], the Oral bioavailability result is “ca. 1%”.
